Columns and labels:
MT4 [1] = test: Tested for inhibition of cytopathic effect of HIV-2ROD in MT-4 cells; format: functional, cell-based; conditions: Homo sapiens
[2] = Cytotoxicity of compound was tested as concentration required for 50% reduction in cellular viability in MT-4 cells; format: cell-based, MT4; conditions: human
[3] = Cytotoxicity of compound was tested as concentration required for 50% reduction in cellular viability in CEM-SS cells; format: cell-based; conditions: human
MT4 [4] = test: Tested for inhibition of cytopathic effect of HIV-1 IIIB in MT-4 cells; format: functional, cell-based; conditions: Homo sapiens
CEM-SS = test: Tested for inhibition of cytopathic effect of HIV-1RF in CEM-SS cells; format: functional, cell-based; conditions: Homo sapiens

SMILES | EC50 (CEM-SS) | EC50 (MT4 [1]) | CC50 [2] | CC50 [3] | EC50 (MT4 [4])
CC(C)CCCC(C)[C@H]1CC[C@H]2[C@@H]3CCC4C[C@@H](CCCC(c5cc(Cl)c(O)c(C(=O)N[C@@H](CCC(=O)O)C(=O)O)c5)c5cc(Cl)c(O)c(C(=O)N[C@@H](CCC(=O)O)C(=O)O)c5)CC[C@]4(C)[C@H]3CC[C@]12C (stereo partly specified) | 11.6 µM | 75.2 µM | > 125 µM | 34 µM | 10.6 µM
CC(C)CCCC(C)[C@H]1CC[C@H]2[C@@H]3CCC4C[C@@H](CCCC(c5cc(Cl)c(O)c(C(=O)NCC(=O)O)c5)c5cc(Cl)c(O)c(C(=O)NCC(=O)O)c5)CC[C@]4(C)[C@H]3CC[C@]12C (stereo partly specified) | 4.5 µM | > 125 µM | > 125 µM | > 200 µM | 34.8 µM
CC(C)CCCC(C)[C@H]1CC[C@H]2[C@@H]3CCC4C[C@@H](CCC=C(c5cc(Cl)c(O)c(C(=O)NCC(=O)O)c5)c5cc(Cl)c(O)c(C(=O)NCC(=O)O)c5)CC[C@]4(C)[C@H]3CC[C@]12C (stereo partly specified) | 3.44 µM | > 125 µM | > 125 µM | > 200 µM | 50.8 µM
CC(C)CCCC(C)[C@H]1CC[C@H]2[C@@H]3CCC4C[C@@H](CCC=C(c5cc(Cl)c(O)c(C(=O)O)c5)c5cc(Cl)c(O)c(C(=O)O)c5)CC[C@]4(C)[C@H]3CC[C@]12C (stereo partly specified) | – | – | > 200 µM | > 200 µM | –
CC(C)CCCC(C)[C@H]1CC[C@H]2[C@@H]3CCC4C[C@@H](CCC=C(c5cc(Cl)c(O)c(C(=O)NCC(=O)OC(C)(C)C)c5)c5cc(Cl)c(O)c(C(=O)NCC(=O)OC(C)(C)C)c5)CC[C@]4(C)[C@H]3CC[C@]12C (stereo partly specified) | – | > 125 µM | > 125 µM | > 125 µM | > 125 µM

Continued, in another order:

EC50 (CEM-SS) | SMILES | EC50 (MT4 [1]) | CC50 [2] | CC50 [3] | EC50 (MT4 [4])
10.7 µM | CC(C)CCCC(C)[C@H]1CC[C@H]2[C@@H]3CCC4C[C@@H](CCC=C(c5cc(Cl)c(O)c(C(=O)N[C@@H](CC(=O)O)C(=O)O)c5)c5cc(Cl)c(O)c(C(=O)N[C@@H](CC(=O)O)C(=O)O)c5)CC[C@]4(C)[C@H]3CC[C@]12C (stereo partly specified) | 122 µM | > 125 µM | 90 µM | 16.6 µM
1.1 µM | CC(C)CCCC(C)[C@H]1CC[C@H]2[C@@H]3CCC4C[C@@H](CCC=C(c5cc(Cl)c(O)c(C(=O)N[C@@H](CCC(=O)O)C(=O)O)c5)c5cc(Cl)c(O)c(C(=O)N[C@@H](CCC(=O)O)C(=O)O)c5)CC[C@]4(C)[C@H]3CC[C@]12C (stereo partly specified) | 71.6 µM | > 125 µM | 82 µM | 9.2 µM
34.7 µM | CC(C)CCCC(C)[C@H]1CC[C@H]2[C@@H]3CCC4C[C@@H](CCC=C(c5cc(Cl)c(O)c(C(=O)NCCC(=O)O)c5)c5cc(Cl)c(O)c(C(=O)NCCC(=O)O)c5)CC[C@]4(C)[C@H]3CC[C@]12C (stereo partly specified) | 120 µM | > 125 µM | > 200 µM | 75.3 µM
40 µM | CC(C)CCCC(C)[C@H]1CC[C@H]2[C@@H]3CCC4C[C@@H](CCC=C(c5cc(Cl)c(O)c(C(=O)N[C@@H](CC(C)C)C(=O)O)c5)c5cc(Cl)c(O)c(C(=O)N[C@@H](CC(C)C)C(=O)O)c5)CC[C@]4(C)[C@H]3CC[C@]12C (stereo partly specified) | > 125 µM | > 125 µM | > 200 µM | 63 µM
> 200 µM | CC(C)CCCC(C)[C@H]1CC[C@H]2[C@@H]3CCC4C[C@@H](CCC=C(c5cc(Cl)c(O)c(C(=O)N[C@@H](Cc6ccccc6)C(=O)O)c5)c5cc(Cl)c(O)c(C(=O)N[C@@H](Cc6ccccc6)C(=O)O)c5)CC[C@]4(C)[C@H]3CC[C@]12C (stereo partly specified) | > 62 µM | 62 µM | > 200 µM | > 62 µM
